# Results taken from ChEMBL document CHEMBL1201862, “PubChem BioAssay data set” (2004).
# Activity calls are given as the source filed them. Rule as the data show it, for most assays here: actives have a measured IC50 and inactives only a lower limit.
# Columns and labels:
# Caspase-3 = biological target: T1, Caspase-3 (Homo sapiens, UniProt P42574); format: functional;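 also: Dose-response selectivity test against caspase-3 for candidate inhibitors of sentrin-specific proteases (SENPs)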
# T1 sequence (P42574 whole entry): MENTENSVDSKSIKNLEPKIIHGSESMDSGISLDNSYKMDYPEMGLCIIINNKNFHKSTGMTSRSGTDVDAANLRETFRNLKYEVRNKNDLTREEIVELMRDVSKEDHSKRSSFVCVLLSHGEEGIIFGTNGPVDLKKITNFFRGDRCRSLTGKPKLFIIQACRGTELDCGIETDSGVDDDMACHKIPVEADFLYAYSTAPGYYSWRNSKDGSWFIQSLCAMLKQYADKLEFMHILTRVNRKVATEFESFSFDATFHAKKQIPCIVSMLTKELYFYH
# [1] = biological target: T2, Sentrin-specific protease 7 (Homo sapiens, UniProt Q9BQF6); format: functional;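 also: Luminescence-based dose-response confirmation of ultra-high-throughput screening hits, measuring inhibition of SENP7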
# T2 sequence (Q9BQF6 whole entry): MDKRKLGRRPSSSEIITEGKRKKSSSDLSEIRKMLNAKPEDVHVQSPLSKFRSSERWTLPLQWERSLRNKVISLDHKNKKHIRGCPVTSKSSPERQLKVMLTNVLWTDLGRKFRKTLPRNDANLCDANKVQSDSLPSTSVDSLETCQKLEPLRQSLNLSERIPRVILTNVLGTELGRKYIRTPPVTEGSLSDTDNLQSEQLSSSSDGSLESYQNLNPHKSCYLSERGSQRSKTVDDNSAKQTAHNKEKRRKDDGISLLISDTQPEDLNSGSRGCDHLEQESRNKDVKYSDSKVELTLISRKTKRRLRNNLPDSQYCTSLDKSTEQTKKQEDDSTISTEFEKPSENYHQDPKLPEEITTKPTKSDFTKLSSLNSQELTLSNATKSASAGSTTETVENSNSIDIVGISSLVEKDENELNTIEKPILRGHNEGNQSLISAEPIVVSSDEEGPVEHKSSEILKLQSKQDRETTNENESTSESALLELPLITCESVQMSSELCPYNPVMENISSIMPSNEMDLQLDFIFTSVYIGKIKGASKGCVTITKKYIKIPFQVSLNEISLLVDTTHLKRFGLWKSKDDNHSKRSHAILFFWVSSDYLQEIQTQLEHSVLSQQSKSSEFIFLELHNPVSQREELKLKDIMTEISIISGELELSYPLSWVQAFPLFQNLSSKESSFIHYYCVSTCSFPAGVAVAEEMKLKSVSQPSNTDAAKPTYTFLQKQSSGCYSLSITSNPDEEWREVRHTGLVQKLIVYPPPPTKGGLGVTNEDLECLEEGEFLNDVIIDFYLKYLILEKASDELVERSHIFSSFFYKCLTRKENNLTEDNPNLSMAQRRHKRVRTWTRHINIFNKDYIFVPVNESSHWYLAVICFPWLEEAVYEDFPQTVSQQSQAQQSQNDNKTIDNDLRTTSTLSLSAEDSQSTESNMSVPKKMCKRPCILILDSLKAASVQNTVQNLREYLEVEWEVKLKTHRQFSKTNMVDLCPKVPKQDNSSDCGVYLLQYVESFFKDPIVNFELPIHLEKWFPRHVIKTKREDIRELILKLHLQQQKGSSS
# [2] = biological target: T3, Sentrin-specific protease 6 (Homo sapiens, UniProt Q9GZR1); format: functional
# T3 sequence (Q9GZR1 whole entry): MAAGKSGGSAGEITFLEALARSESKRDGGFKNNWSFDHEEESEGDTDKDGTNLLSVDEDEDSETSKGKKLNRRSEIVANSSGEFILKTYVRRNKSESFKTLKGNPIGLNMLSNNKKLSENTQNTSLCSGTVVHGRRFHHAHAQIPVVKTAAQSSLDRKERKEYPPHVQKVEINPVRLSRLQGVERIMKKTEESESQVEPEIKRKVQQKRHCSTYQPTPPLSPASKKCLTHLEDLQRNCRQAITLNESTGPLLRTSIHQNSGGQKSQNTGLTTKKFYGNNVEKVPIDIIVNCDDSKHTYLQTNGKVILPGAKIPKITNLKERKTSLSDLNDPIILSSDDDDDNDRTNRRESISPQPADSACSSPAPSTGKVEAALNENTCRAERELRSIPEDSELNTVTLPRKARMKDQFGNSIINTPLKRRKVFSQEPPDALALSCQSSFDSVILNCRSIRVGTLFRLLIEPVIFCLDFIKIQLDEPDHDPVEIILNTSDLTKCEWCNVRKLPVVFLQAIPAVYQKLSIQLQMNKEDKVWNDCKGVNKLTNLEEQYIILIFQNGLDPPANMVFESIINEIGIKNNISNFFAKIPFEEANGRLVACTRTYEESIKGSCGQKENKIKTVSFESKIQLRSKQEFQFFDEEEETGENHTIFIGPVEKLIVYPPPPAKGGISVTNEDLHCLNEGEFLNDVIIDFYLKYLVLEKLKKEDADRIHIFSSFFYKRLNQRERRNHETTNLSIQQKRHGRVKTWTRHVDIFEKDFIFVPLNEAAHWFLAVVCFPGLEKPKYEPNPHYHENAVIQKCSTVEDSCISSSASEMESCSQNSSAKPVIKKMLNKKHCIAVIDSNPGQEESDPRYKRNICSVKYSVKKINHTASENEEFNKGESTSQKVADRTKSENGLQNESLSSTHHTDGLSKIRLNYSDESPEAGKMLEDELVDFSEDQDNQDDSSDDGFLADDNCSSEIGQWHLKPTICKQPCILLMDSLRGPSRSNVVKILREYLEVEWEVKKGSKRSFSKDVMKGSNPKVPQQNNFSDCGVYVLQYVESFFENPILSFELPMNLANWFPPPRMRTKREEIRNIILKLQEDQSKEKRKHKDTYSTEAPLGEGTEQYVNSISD
# [3] = biological target: T4, Sentrin-specific protease 8 (Homo sapiens, UniProt Q96LD8); format: functional;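 also: luminescence read-out of SENP8 inhibition, dose-response confirmation following an ultra-high-throughput screen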
# T4 sequence (Q96LD8 whole entry): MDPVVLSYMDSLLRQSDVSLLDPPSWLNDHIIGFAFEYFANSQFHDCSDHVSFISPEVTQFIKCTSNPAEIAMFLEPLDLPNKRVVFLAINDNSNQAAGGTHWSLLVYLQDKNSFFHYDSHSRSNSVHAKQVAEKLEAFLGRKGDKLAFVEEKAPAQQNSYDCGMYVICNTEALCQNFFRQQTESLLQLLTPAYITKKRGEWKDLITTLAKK
# [4] = biological target: Tyrosyl-DNA phosphodiesterase 2 (Homo sapiens, UniProt O95551); test: potency against TDP2 phosphodiesterase activity – biochemical, epi absorbance, IC50, dose response (AID 743297)
# [5] = biological target: T4, Sentrin-specific protease 8; test: inhibition of human SENP8 cleavage activity – biochemical, luminescence, SAR follow-up (AID 504501); format: functional
# [6] = biological target: T3, Sentrin-specific protease 6; test: SAR Analysis of small molecule inhibitors of Sentrin-specific protease 6 (SENP6) using a Luminescent assay. [Related pubchem assays (depositor defined):AID2582, AID2599]; format: functional
# Chain of Tyrosyl-DNA phosphodiesterase 2 (O95551 whole entry): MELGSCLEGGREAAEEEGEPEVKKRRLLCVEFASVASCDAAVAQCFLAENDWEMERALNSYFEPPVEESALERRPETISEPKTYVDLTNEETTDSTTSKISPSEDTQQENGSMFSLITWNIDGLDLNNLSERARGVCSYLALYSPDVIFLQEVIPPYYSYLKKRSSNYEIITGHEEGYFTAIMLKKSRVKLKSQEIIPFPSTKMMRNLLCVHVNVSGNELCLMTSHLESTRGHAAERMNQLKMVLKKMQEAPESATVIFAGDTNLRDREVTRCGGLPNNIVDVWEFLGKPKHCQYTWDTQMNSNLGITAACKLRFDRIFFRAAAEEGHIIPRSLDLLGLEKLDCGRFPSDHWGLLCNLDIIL
IC50 [4],SMILES,IC50 (Caspase-3),IC50 [1],IC50 [2],IC50 [3],IC50 [5],IC50 [6]
52.5 µM (inactive),CCOC(=O)C1=C(COC(=O)c2ccc([N+](=O)[O-])s2)NC(=O)NC1C (stereo unspecified),8.13 µM (active),6.1 µM (active),4.48 µM (active),3.57 µM (active),–,–
–,Oc1cccc(/C=N/Nc2cc(N3CCCC3)nc(N3CCCC3)n2)c1,> 100 µM (inactive),9.99 µM (active),6.69 µM (active),17.2 µM (active),> 99 µM (inactive),20.4 µM (active)
